We go through one substance from paper PMC3390464 (Phytochemistry, 2012).

This assay deals with Sigma 1 receptor. The assay can be described thus: competitive radioligand binding assay.

“9,13-epoxy-6-hydroxylabdan-15,16-olide [compound 11]” gave a Ki of 2900 nM.

As usually defined, the Ki is the dissociation constant of the complex between target and ligand, obtained from inhibition or displacement.
